≈ marks a conversion by molar mass, not a printed value.
Experiments:
[1] = system: Escherichia coli; assay: Minimum inhibitory concentration gainst Escherichia coli by broth microdilution technique; assay type: functional
[2] = system: Enterococcus faecalis; assay: Minimum inhibitory concentration gainst Streptococcus faecalis by broth microdilution technique; assay type: functional
[3] = system: Staphylococcus aureus; assay: Minimum inhibitory concentration gainst Staphylococcus aureus by broth microdilution technique; assay type: functional
[4] = system: Pseudomonas aeruginosa; assay: Minimum inhibitory concentration gainst Pseudomonas aeruginosa by broth microdilution technique; assay type: functional
[5] = system: Klebsiella pneumoniae; assay: Minimum inhibitory concentration gainst Klebsiella pneumoniae by broth microdilution technique; assay type: functional
[6] = Antiviral activity against poliovirus type 2 infected HeLa cells; control=55; assay type: functional, Poliovirus type2
[7] = Antiviral activity against poliovirus type 2 infected HeLa cells; assay type: functional, Poliovirus type2

Molecule | MIC [1] [µg/mL] | MIC [2] [µg/mL] | MIC [3] [µg/mL] | MIC [4] [µg/mL] | MIC [5] [µg/mL] | DPM [6] | DPM [7]
COc1ccccc1NC(=O)C(C)SC1=CC(=O)c2ccccc2C1=O (stereo not given) | > 50 | > 50 | > 50 | > 50 | 12.5 (≈ 34 µM) |  | 
Cc1ccccc1NC(=O)C(C)SC1=CC(=O)c2ccccc2C1=O (stereo not given) | > 50 | > 50 | > 50 | > 50 | > 50 |  | 
GENTAMICIN |  |  | 0.78 | 0.78 | 0.39 |  | 
CC(SC1=C(O)C(=O)c2ccccc2C1=O)C(=O)O (stereo not given) | 50 (≈ 180 µM) | 50 (≈ 180 µM) | 50 (≈ 180 µM) | > 50 | 50 (≈ 180 µM) |  | 
Cc1ccc(NC(=O)C(C)SC2=CC(=O)c3ccccc3C2=O)cc1 (stereo not given) | > 50 | > 50 | > 50 | > 50 | > 50 |  | 
COc1ccc(NC(=O)CSC2=CC(=O)c3ccccc3C2=O)cc1 | 12.5 (≈ 35.4 µM) | 6.25 (≈ 17.7 µM) | 25 (≈ 70.7 µM) | 50 (≈ 141 µM) | 6.25 (≈ 17.7 µM) |  | 
CC(SC1=CC(=O)c2ccccc2C1=O)C(=O)Nc1ccc([N+](=O)[O-])cc1 (stereo not given) | 50 (≈ 131 µM) | 50 (≈ 131 µM) | 25 (≈ 65.4 µM) | > 50 | > 50 |  | 
CC(SC1=CC(=O)c2ccccc2C1=O)C(=O)Nc1ccccc1 (stereo not given) | 6.25 (≈ 18.5 µM) | 12.5 (≈ 37 µM) | 25 (≈ 74.1 µM) | > 50 | > 50 |  | 
O=C(CSC1=CC(=O)c2ccccc2C1=O)Nc1cccc2ccccc12 | 12.5 (≈ 33.5 µM) | 12.5 (≈ 33.5 µM) | > 50 | > 50 | 25 (≈ 66.9 µM) |  | 
O=C(CSC1=CC(=O)c2ccccc2C1=O)Nc1ccccc1 | 50 (≈ 155 µM) | 50 (≈ 155 µM) | 12.5 (≈ 38.7 µM) | > 50 | 50 (≈ 155 µM) |  | 
Cc1cccc(NC(=O)C(C)SC2=CC(=O)c3ccccc3C2=O)c1 (stereo not given) | > 50 | > 50 | > 50 | > 50 | > 50 |  | 
O=C(CSC1=CC(=O)c2ccccc2C1=O)Nc1ccc([N+](=O)[O-])cc1 | 6.25 (≈ 17 µM) | 12.5 (≈ 33.9 µM) | 25 (≈ 67.9 µM) | > 50 | > 50 |  | 
O=C(O)CSC1=CC(=O)c2c(O)ccc(O)c2C1=O | > 50 | > 50 | > 50 | > 50 | > 50 |  | 
CC(SC1=CC(=O)c2ccccc2C1=O)C(=O)Nc1cccc2ccccc12 (stereo not given) | > 50 | > 50 | > 50 | 50 (≈ 129 µM) | > 50 |  | 
CC(SC1=CC(=O)c2c(O)ccc(O)c2C1=O)C(=O)O (stereo not given) | 50 (≈ 170 µM) | 25 (≈ 85 µM) | > 50 | > 50 | 50 (≈ 170 µM) |  | 
CC1=C(SC(C)C(=O)O)C(=O)c2ccccc2C1=O (stereo not given) | 50 (≈ 181 µM) | 50 (≈ 181 µM) | 25 (≈ 90.5 µM) | > 50 | > 50 |  | 
Cc1ccccc1NC(=O)CSC1=CC(=O)c2ccccc2C1=O | 50 (≈ 148 µM) | 50 (≈ 148 µM) | 12.5 (≈ 37 µM) | > 50 | > 50 |  | 
O=C1C=CC(=O)c2c(Cl)ccc(O)c21 |  |  |  |  |  | 375 | 
CC(SC1=CC(=O)c2ccccc2C1=O)C(=O)O (stereo not given) | 50 (≈ 191 µM) | 50 (≈ 191 µM) | 25 (≈ 95.3 µM) | > 50 | 50 (≈ 191 µM) |  | 
Oc1ccc(O)c2c1SCCS2 | > 50 | > 50 | > 50 | > 50 | > 50 |  | 
O=C1C=CC(=O)c2c(O)c3c(c(O)c21)SCCS3 | > 50 | > 50 | > 50 | > 50 | > 50 |  | 
O=C(O)CSC1=CC(=O)c2ccccc2C1=O |  |  |  |  |  |  | 675
O=C1CSc2c3c(c4ccccc4c2O1)OC(=O)CS3 | > 50 | > 50 | > 50 | > 50 | 25 (≈ 82.1 µM) |  | 
O=C1C2=C(SCCS2)C(=O)c2ccccc21 | > 50 | > 50 | > 50 | 50 (≈ 201 µM) | > 50 |  | 
COc1ccccc1NC(=O)CSC1=CC(=O)c2ccccc2C1=O | 6.25 (≈ 17.7 µM) | > 12.5 | > 50 | > 50 | 25 (≈ 70.7 µM) |  | 
COc1ccc(NC(=O)C(C)SC2=CC(=O)c3ccccc3C2=O)cc1 (stereo not given) | 50 (≈ 136 µM) | > 50 | 25 (≈ 68 µM) | > 50 | > 50 |  | 

From ChEMBL document CHEMBL1144362, “Synthesis and biological evaluation of novel 1,4-naphthoquinone derivatives as antibacterial and antiviral agents” (2005)
